Assay results reported in ChEMBL document CHEMBL6103661, “Identification of Phosphodiesterase-7 Inhibitors with Spiro[[1,3]oxazolo[5,4-f]quinazoline-9,1'-cyclohexan]-7-one Scaffold for the Treatment of Chronic Fatigue” (ACS Med Chem Lett, 2025).

Assays:
[1] = system: Soleus muscle; assay: Protection against 12.5 mM KCl-induced loss of contractile force in Sprague-Dawley rat soleus muscle assessed as mean residual contractile force at 1 uM pretreated for 10 mins followed by KCl stimulation at 5 mins interval for 30 mins and measured in presence of salbutamol by isometric force transducer method relative to control; format: functional; details: time 40 min
[2] = target: High affinity 3',5'-cyclic-AMP phosphodiesterase 7A (Homo sapiens, UniProt Q13946); assay: Inhibition of human recombinant PDE7A expressed in Sf9 insect cells using FAM-cAMP as substrate preincubated for 15 mins followed by substrate addition and measured after 30 mins by spectrofluorimetry
Chain of High affinity 3',5'-cyclic-AMP phosphodiesterase 7A (Q13946 whole entry): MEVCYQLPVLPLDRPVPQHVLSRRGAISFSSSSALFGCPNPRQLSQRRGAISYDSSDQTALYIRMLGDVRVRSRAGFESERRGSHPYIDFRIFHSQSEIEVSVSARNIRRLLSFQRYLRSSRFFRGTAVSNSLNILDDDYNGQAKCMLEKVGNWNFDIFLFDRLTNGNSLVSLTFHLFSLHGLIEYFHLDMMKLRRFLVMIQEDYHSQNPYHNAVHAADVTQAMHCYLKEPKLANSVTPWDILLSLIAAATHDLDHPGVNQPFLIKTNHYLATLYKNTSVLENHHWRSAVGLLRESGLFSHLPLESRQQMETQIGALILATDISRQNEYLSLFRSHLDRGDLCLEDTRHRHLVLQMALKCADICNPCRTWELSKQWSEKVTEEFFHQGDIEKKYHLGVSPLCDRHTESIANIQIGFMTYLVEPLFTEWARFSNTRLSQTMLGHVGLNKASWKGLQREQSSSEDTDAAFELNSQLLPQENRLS

[3] = target: 3',5'-cyclic-AMP phosphodiesterase 7B (Homo sapiens, UniProt Q9NP56); assay: Inhibition of human recombinant PDE7B expressed in Sf9 insect cells using FAM-cAMP as substrate preincubated for 15 mins followed by substrate addition and measured after 30 mins by spectrofluorimetry
Chain of 3',5'-cyclic-AMP phosphodiesterase 7B (Q9NP56 whole entry): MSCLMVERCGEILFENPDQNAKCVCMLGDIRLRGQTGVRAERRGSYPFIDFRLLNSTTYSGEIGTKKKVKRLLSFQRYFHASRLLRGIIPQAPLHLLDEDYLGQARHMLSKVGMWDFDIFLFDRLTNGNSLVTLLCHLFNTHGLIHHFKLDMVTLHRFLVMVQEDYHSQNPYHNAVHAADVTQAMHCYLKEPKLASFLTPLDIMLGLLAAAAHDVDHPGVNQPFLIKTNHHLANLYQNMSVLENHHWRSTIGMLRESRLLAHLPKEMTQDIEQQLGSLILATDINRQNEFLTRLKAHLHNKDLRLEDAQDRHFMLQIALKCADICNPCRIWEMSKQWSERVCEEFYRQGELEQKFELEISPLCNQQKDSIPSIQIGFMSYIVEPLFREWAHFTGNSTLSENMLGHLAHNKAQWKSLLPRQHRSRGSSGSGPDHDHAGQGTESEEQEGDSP

IC50 [2] | IC50 [3] | SMILES | Activity [1]
28 nM | 58 nM | CN(C)C1CCN(C(=O)c2cc3cc(Cl)c4c(c3o2)C2(CCCCC2)NC(=O)N4)CC1 | 73.7%
5.57 nM |  | CN(C)C(=O)CNCc1nc2cc(Cl)c3c(c2o1)C1(CCCCC1)NC(=O)N3 | 60.5%
